Measurements reported in ChEMBL document CHEMBL4038308, “Lipophosphonoxins II: Design, Synthesis, and Properties of Novel Broad Spectrum Antibacterial Agents” (J Med Chem, 2017).
In brackets after ≈: the same amount, converted by molar mass. Activity calls are given as the source filed them. The calls are words filed in the database; no cut-off is given here.

Legend:
Bacillus subtilis [1] = assay: Antibacterial activity against Bacillus subtilis assessed as inhibition of RNA synthesis at 100 mg/L after 50 mins by [3H]-uridine incorporation assay; type: functional
Bacillus subtilis [2] = assay: Antibacterial activity against Bacillus subtilis assessed as inhibition of protein synthesis at 100 mg/L after 50 mins by [35S]-methionine incorporation assay; type: functional
Bacillus subtilis [3] = assay: Antibacterial activity against Bacillus subtilis assessed as inhibition of DNA synthesis at 100 mg/L after 50 mins by [3H]thymidine incorporation assay; type: functional
Bacillus subtilis [4] = assay: Antibacterial activity against Bacillus subtilis assessed as inhibition of peptidoglycan synthesis at 100 mg/L after 50 mins by [3H]-N-acetylglucosamine incorporation assay; type: functional
Bacillus subtilis [5] = assay: Antibacterial activity against Bacillus subtilis assessed as inhibition of plasma membrane lipids synthesis at 100 mg/L after 50 mins by [3H]-sodium acetate incorporation assay; type: functional
Escherichia coli [6] = assay: Antibacterial activity against Escherichia coli CCM 3954 after 24 hrs by microdilution method; type: functional; conditions: CCM 3954, 24 h
Acinetobacter baumannii = assay: Antibacterial activity against Acinetobacter baumannii A3-08 after 24 hrs by microdilution method; type: functional; conditions: A3-08, 24 h
Staphylococcus aureus [7] = assay: Antibacterial activity against methicillin-resistant Staphylococcus aureus 4591 clinical isolates after 24 hrs by microdilution method; type: functional; conditions: Staphylococcus aureus, 4591, 24 h
Burkholderia multivorans = assay: Antibacterial activity against Burkholderia multivorans after 24 hrs by microdilution method; type: functional
Bacillus subtilis [8] = assay: Antibacterial activity against Bacillus subtilis after 24 hrs by microdilution method; type: functional
Salmonella enteritidis = assay: Antibacterial activity against Salmonella enteritidis S2-25 after 24 hrs by microdilution method; type: functional, Salmonella enterica subsp. enterica serovar Enteritidis; conditions: Salmonella enterica, S2-25, 24 h
Pseudomonas aeruginosa [9] = assay: Antibacterial activity against Pseudomonas aeruginosa CCM 3955 after 24 hrs by microdilution method; type: functional; conditions: CCM 3955, 24 h
Staphylococcus aureus [10] = assay: Antibacterial activity against Staphylococcus aureus CCM 4223 after 24 hrs by microdilution method; type: functional; conditions: CCM 4223, 24 h
Pseudomonas aeruginosa [11] = assay: Antibacterial activity against Pseudomonas aeruginosa 16575 after 24 hrs by microdilution method; type: functional; conditions: Pseudomonas aeruginosa, 16575, 24 h
Enterococcus faecalis = assay: Antibacterial activity against Enterococcus faecalis CCM 4224 after 24 hrs by microdilution method; type: functional; conditions: CCM 4224, 24 h
[12] = system: Stenotrophomonas maltophilia; assay: Antibacterial activity against Stenotrophomonas maltophilia S2-23 after 24 hrs by microdilution method; type: functional; conditions: S2-23, 24 h
Enterococcus faecium = assay: Antibacterial activity against vancomycin-resistant Enterococcus faecium 419/ana clinical isolates after 24 hrs by microdilution method; type: functional
[13] = system: Staphylococcus epidermidis; assay: Antibacterial activity against Staphylococcus epidermidis 8700/B after 24 hrs by microdilution method; type: functional
Escherichia coli [14] = assay: Antibacterial activity against Escherichia coli 16702 after 24 hrs by microdilution method; type: functional; conditions: Escherichia coli, 16702, 24 h
[15] = system: Staphylococcus haemolyticus; assay: Antibacterial activity against fluoroquinolne-resistant Staphylococcus haemolyticus 16568 after 24 hrs by microdilution method; type: functional; conditions: Staphylococcus haemolyticus, 16568, 24 h
Streptococcus agalactiae = assay: Antibacterial activity against Streptococcus agalactiae after 24 hrs by microdilution method; type: functional
Lipid bilayer = assay: Binding affinity to DOPG large unilamellar vesicle assessed as carboxyfluorescein leakage at 10 mg/L after 20 secs by fluorescence-based assay relative to control
Bacillus subtilis [16] = assay: Antibacterial activity against Bacillus subtilis assessed as inhibition of protein synthesis at 2 mg/L after 50 mins by [35S]-methionine incorporation assay; type: functional
Bacillus subtilis [17] = assay: Antibacterial activity against Bacillus subtilis assessed as inhibition of peptidoglycan synthesis at 2 mg/L after 50 mins by [3H]-N-acetylglucosamine incorporation assay; type: functional
Bacillus subtilis [18] = assay: Antibacterial activity against Bacillus subtilis assessed as inhibition of RNA synthesis at 2 mg/L after 50 mins by [3H]-uridine incorporation assay; type: functional
Bacillus subtilis [19] = assay: Antibacterial activity against Bacillus subtilis assessed as inhibition of plasma membrane lipids synthesis at 2 mg/L after 50 mins by [3H]-sodium acetate incorporation assay; type: functional
Bacillus subtilis [20] = assay: Antibacterial activity against Bacillus subtilis assessed as inhibition of DNA synthesis at 2 mg/L after 50 mins by [3H]thymidine incorporation assay; type: functional
[21] = Pore forming activity across black lipid bilayer membranes assessed as induction of variation in membrane current by measuring pore conductance at 5 ug/ml

Compound	MIC (Escherichia coli [6]) [µg/mL]	MIC (Acinetobacter baumannii) [µg/mL]	MIC (Staphylococcus aureus [7]) [µg/mL]	MIC (Burkholderia multivorans) [µg/mL]	MIC (Bacillus subtilis [8]) [µg/mL]	MIC (Salmonella enteritidis) [µg/mL]	MIC (Pseudomonas aeruginosa [9]) [µg/mL]	MIC (Staphylococcus aureus [10]) [µg/mL]	MIC (Pseudomonas aeruginosa [11]) [µg/mL]	MIC (Enterococcus faecalis) [µg/mL]	MIC [12] [µg/mL]	MIC (Enterococcus faecium) [µg/mL]	MIC [13] [µg/mL]	MIC (Escherichia coli [14]) [µg/mL]	MIC [15] [µg/mL]	MIC (Streptococcus agalactiae) [µg/mL]	further results
C/C=C/C/C=C/CCC(=O)[C@H]1O[C@H]1C(N)=O	–	–	–	–	–	–	–	–	–	–	–	–	–	–	–	–	inhibition (Bacillus subtilis [1]): Active; inhibition (Bacillus subtilis [2]): Active; inhibition (Bacillus subtilis [3]): Active; inhibition (Bacillus subtilis [4]): Active; inhibition (Bacillus subtilis [5]): Active
CCCCCCCCCCCCOP(=O)(CCN(CCCN)CCCN)OC[C@H]1O[C@@H](n2ccc(=O)[nH]c2=O)[C@H](O)[C@@H]1O (some centres undefined)	25 (≈ 39.4 µM)	6.25 (≈ 9.86 µM)	200 (≈ 316 µM)	> 200	3.13 (≈ 4.94 µM)	6.25 (≈ 9.86 µM)	3.13 (≈ 4.94 µM)	25 (≈ 39.4 µM)	50 (≈ 78.9 µM)	100 (≈ 158 µM)	6.25 (≈ 9.86 µM)	25 (≈ 39.4 µM)	6.25 (≈ 9.86 µM)	25 (≈ 39.4 µM)	200 (≈ 316 µM)	3.13 (≈ 4.94 µM)	–
CCCCCCCCCCCCCCOP(=O)(CCN1CCC(N)C1)OC[C@H]1O[C@@H](n2ccc(=O)[nH]c2=O)[C@H](O)[C@@H]1O (some centres undefined)	3.13 (≈ 5.08 µM)	6.25 (≈ 10.1 µM)	25 (≈ 40.5 µM)	50 (≈ 81.1 µM)	1.56 (≈ 2.53 µM)	6.25 (≈ 10.1 µM)	3.13 (≈ 5.08 µM)	12.5 (≈ 20.3 µM)	3.13 (≈ 5.08 µM)	6.25 (≈ 10.1 µM)	12.5 (≈ 20.3 µM)	50 (≈ 81.1 µM)	3.13 (≈ 5.08 µM)	3.13 (≈ 5.08 µM)	6.25 (≈ 10.1 µM)	3.13 (≈ 5.08 µM)	–
CCCCCCCCCCCCCCCOP(=O)(CCN1CCC(N)C1)OC[C@H]1O[C@@H](n2ccc(=O)[nH]c2=O)[C@H](O)[C@@H]1O (some centres undefined)	6.25 (≈ 9.91 µM)	6.25 (≈ 9.91 µM)	6.25 (≈ 9.91 µM)	50 (≈ 79.3 µM)	3.13 (≈ 4.96 µM)	6.25 (≈ 9.91 µM)	12.5 (≈ 19.8 µM)	6.25 (≈ 9.91 µM)	12.5 (≈ 19.8 µM)	6.25 (≈ 9.91 µM)	6.25 (≈ 9.91 µM)	25 (≈ 39.6 µM)	6.25 (≈ 9.91 µM)	6.25 (≈ 9.91 µM)	6.25 (≈ 9.91 µM)	3.13 (≈ 4.96 µM)	–
CCCCCCCCCCCCCOP(=O)(CCN(CCCNC(=N)N)CCCNC(=N)N)OC[C@H]1O[C@@H](n2ccc(=O)[nH]c2=O)[C@H](O)[C@@H]1O (some centres undefined)	12.5 (≈ 17.1 µM)	25 (≈ 34.2 µM)	12.5 (≈ 17.1 µM)	50 (≈ 68.3 µM)	1.56 (≈ 2.13 µM)	12.5 (≈ 17.1 µM)	3.13 (≈ 4.28 µM)	6.25 (≈ 8.54 µM)	25 (≈ 34.2 µM)	25 (≈ 34.2 µM)	25 (≈ 34.2 µM)	50 (≈ 68.3 µM)	6.25 (≈ 8.54 µM)	12.5 (≈ 17.1 µM)	3.13 (≈ 4.28 µM)	3.13 (≈ 4.28 µM)	–
CCCCCCCCCCCCCCCOP(=O)(CCN(CCN)CCN)OC[C@H]1O[C@@H](n2ccc(=O)[nH]c2=O)[C@H](O)[C@@H]1O (some centres undefined)	1.56 (≈ 2.41 µM)	3.13 (≈ 4.83 µM)	6.25 (≈ 9.65 µM)	50 (≈ 77.2 µM)	0.78 (≈ 1.2 µM)	1.56 (≈ 2.41 µM)	1.56 (≈ 2.41 µM)	6.25 (≈ 9.65 µM)	1.56 (≈ 2.41 µM)	12.5 (≈ 19.3 µM)	3.13 (≈ 4.83 µM)	100 (≈ 154 µM)	1.56 (≈ 2.41 µM)	1.56 (≈ 2.41 µM)	1.56 (≈ 2.41 µM)	3.13 (≈ 4.83 µM)	–
CCCCCCCCCCCCCCOP(=O)(CCN(CCCNC(=N)N)CCCNC(=N)N)OC[C@H]1O[C@@H](n2ccc(=O)[nH]c2=O)[C@H](O)[C@@H]1O (some centres undefined)	3.13 (≈ 4.2 µM)	12.5 (≈ 16.8 µM)	6.25 (≈ 8.38 µM)	100 (≈ 134 µM)	1.56 (≈ 2.09 µM)	3.13 (≈ 4.2 µM)	3.13 (≈ 4.2 µM)	6.25 (≈ 8.38 µM)	6.25 (≈ 8.38 µM)	12.5 (≈ 16.8 µM)	12.5 (≈ 16.8 µM)	50 (≈ 67 µM)	3.13 (≈ 4.2 µM)	3.13 (≈ 4.2 µM)	3.13 (≈ 4.2 µM)	3.13 (≈ 4.2 µM)	Activity (Lipid bilayer): Active
CO[C@H]1/C=C/O[C@@]2(C)Oc3c(C)c(O)c4c(O)c(c(/C=N/N5CCN(C)CC5)c(O)c4c3C2=O)NC(=O)/C(C)=C\C=C\[C@H](C)[C@H](O)[C@@H](C)[C@@H](O)[C@@H](C)[C@H](OC(C)=O)[C@@H]1C	–	–	–	–	–	–	–	–	–	–	–	–	–	–	–	–	inhibition (Bacillus subtilis [16]): Active; inhibition (Bacillus subtilis [17]): Active; inhibition (Bacillus subtilis [18]): Active; inhibition (Bacillus subtilis [19]): Active; inhibition (Bacillus subtilis [20]): Active
CCCCCCCCCC(=O)N[C@@H](Cc1c[nH]c2ccccc12)C(=O)N[C@@H](CC(N)=O)C(=O)N[C@@H](CC(=O)O)C(=O)N[C@@H]1C(=O)NCC(=O)N[C@@H](CCCN)C(=O)N[C@@H](CC(=O)O)C(=O)N[C@H](C)C(=O)N[C@@H](CC(=O)O)C(=O)NCC(=O)N[C@H](CO)C(=O)N[C@@H]([C@H](C)CC(=O)O)C(=O)N[C@@H](CC(=O)c2ccccc2N)C(=O)O[C@@H]1C	–	–	–	–	–	–	–	–	–	–	–	–	–	–	–	–	Activity [21]: 500 pS
CCn1cc(C(=O)O)c(=O)c2ccc(C)nc21	–	–	–	–	–	–	–	–	–	–	–	–	–	–	–	–	inhibition (Bacillus subtilis [1]): Active; inhibition (Bacillus subtilis [2]): Active; inhibition (Bacillus subtilis [3]): Active; inhibition (Bacillus subtilis [4]): Active; inhibition (Bacillus subtilis [5]): Active
CCCCCCCCCCCCCCCOP(=O)(CCN(CCNC(=N)N)CCNC(=N)N)OC[C@H]1O[C@@H](n2ccc(=O)[nH]c2=O)[C@H](O)[C@@H]1O (some centres undefined)	3.13 (≈ 4.28 µM)	6.25 (≈ 8.54 µM)	6.25 (≈ 8.54 µM)	12.5 (≈ 17.1 µM)	3.13 (≈ 4.28 µM)	3.13 (≈ 4.28 µM)	6.25 (≈ 8.54 µM)	6.25 (≈ 8.54 µM)	6.25 (≈ 8.54 µM)	25 (≈ 34.2 µM)	3.13 (≈ 4.28 µM)	50 (≈ 68.3 µM)	3.13 (≈ 4.28 µM)	3.13 (≈ 4.28 µM)	6.25 (≈ 8.54 µM)	3.13 (≈ 4.28 µM)	–
CC1(C)S[C@@H]2[C@H](NC(=O)[C@H](N)c3ccccc3)C(=O)N2[C@H]1C(=O)O	–	–	–	–	–	–	–	–	–	–	–	–	–	–	–	–	inhibition (Bacillus subtilis [16]): Active; inhibition (Bacillus subtilis [17]): Active; inhibition (Bacillus subtilis [18]): Active; inhibition (Bacillus subtilis [19]): Active; inhibition (Bacillus subtilis [20]): Active
